Measurements from paper PMC8393646, “Metformin Is a Pyridoxal-5′-phosphate (PLP)-Competitive Inhibitor of SHMT2” (Cancers, 2021).
Counter-ions that a name gives are not always drawn.

What was measured:
[1] = target: T1, SHMT2 (mitochondrial serine hydroxymethyltransferase) (Homo sapiens, UniProt P34897); assay: spectrophotometric quinonoid-intermediate assay ([…] nm) with purified recombinant enzyme, mixed-type inhibition fit; supported by DSF; assay type: biochemical
T1 sequence (P34897 30-504): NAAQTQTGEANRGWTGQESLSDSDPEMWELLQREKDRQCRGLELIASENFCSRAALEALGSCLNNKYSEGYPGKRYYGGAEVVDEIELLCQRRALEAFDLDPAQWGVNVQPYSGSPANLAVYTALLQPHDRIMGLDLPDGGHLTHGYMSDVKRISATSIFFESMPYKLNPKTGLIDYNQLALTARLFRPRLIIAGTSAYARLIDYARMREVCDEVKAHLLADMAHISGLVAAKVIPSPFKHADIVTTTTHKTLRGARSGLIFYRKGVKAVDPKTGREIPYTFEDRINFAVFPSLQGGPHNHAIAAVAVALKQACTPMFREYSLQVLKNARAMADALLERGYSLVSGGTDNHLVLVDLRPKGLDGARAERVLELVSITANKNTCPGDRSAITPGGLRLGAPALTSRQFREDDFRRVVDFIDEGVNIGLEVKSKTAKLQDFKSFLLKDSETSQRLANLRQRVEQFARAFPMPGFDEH

[2] = target: T2, SHMT1 (cytosolic serine hydroxymethyltransferase) (Homo sapiens, UniProt P34896); assay: spectrophotometric quinonoid-intermediate assay ([…] nm) with purified recombinant enzyme; assay type: biochemical
T2 sequence (P34896 2-483): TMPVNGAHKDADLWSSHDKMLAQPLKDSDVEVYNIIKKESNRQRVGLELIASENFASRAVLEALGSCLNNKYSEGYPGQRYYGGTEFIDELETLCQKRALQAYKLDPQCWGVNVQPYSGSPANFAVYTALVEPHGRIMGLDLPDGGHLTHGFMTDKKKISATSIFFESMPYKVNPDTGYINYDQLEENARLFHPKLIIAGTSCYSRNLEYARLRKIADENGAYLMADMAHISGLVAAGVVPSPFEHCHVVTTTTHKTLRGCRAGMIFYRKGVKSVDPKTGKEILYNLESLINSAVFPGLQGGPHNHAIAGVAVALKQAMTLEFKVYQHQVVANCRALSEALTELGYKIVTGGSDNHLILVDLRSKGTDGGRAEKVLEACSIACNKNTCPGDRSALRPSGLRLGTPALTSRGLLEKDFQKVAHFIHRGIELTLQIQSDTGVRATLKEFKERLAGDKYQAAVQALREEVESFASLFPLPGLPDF

[3] = target: T1, SHMT2 (mitochondrial serine hydroxymethyltransferase); assay: DSF titration of apo-enzyme with PLP (Tm vs concentration); assay type: binding; set-up: apo-SHMT2

SMILES | Ki [1] [mM] | Ki [2] [mM] | Kd [3] [mM]
CN(C)C(=N)N=C(N)N [MET, 1,1-dimethylbiguanide hydrochloride] | 13.3 ± 2.1 | 100 ± 33 | –
Cc1ncc(COP(=O)(O)O)c(C=O)c1O [PLP, pyridoxal-5′-phosphate] | – | – | 0.0003
